Earlier results as cited in US20220212015A1, “SURGICAL SYSTEM AND METHODS OF USE” (priority 2021, published 2022).

Test system: myofibroblast formation
Conditions: Ajmal et al. (2003)

For `O=S(=O)([O-])CCS.[Na+]` [MESNA, sodium 2-mercaptoethane sulfonate], the “effect on myofibroblast formation” value is given as “diminish myofibroblast formation”.
